Experimental data reported in patent US20040220115A1, “Medicinal compositions and their method of preparation” (priority 1999, published 2004).

What was measured:
[1] = Degradation of stored BEC extract, solamargine and solasonine levels by HPLC; format: physicochemical; conditions: for % degradation estimated: four weeks storage under ambient conditions, estimated from the degradation study
Source text: A BEC extract was obtained from Solanum Sodomaeum according to conventional extraction procedures. The degradation of the BEC extract was estimated by measuring the change in solamargine and solasonine levels over time. Although degradation of BEC could also be measured by an increase in sugar levels, in practice HPLC analysis for solamargine and solasonine allowed a more quantative analysis to be conducted and was therefore chosen for this study.

[2] = tested on: human ovarian cancer cells; test: Effect of washed and unwashed BEC on human ovarian cancer cells; format: cell-based
Protocol: The effect of washed and unwashed BEC or human ovarian cancer cells was compared. The washed and unwashed BEC were prepared as described for Example 8.
Cells (5×10^4) were transferred (200 μl chamber of a microscope slide (Lab Tek Miles Scientific). Controls received 50 μl HIFCS/TCM and experimental chambers 50 μl of solasodine glycosides (BEC) 1.5-3.8 μM/L, washed and unwashed after 7-h preincubation and incubated for a further 17 h and […] preincubation and incubated for a further 3h. Similarly, the cells were treated with the aglycone solasodine 19.4-96.8 μM/L. The cells were fixed and examined by the Papanicolaou method.

murine sarcoma 180 = conditions: cited from earlier work
[3] = Time 0 years storage of BEC extract

C[C@@H]1CC[C@@]2(NC1)O[C@H]1C[C@H]3[C@@H]4CC=C5C[C@@H](O[C@@H]6O[C@H](CO)[C@@H](O[C@@H]7O[C@@H](C)[C@H](O)[C@@H](O)[C@H]7O)[C@H](O)[C@H]6O[C@@H]6O[C@@H](C)[C@H](O)[C@@H](O)[C@H]6O)CC[C@]5(C)[C@H]4CC[C@]3(C)[C@H]1[C@@H]2C [Solamargine, (22R,25R)-spiro-5-en-3β-yl-α-L-rhamnopyranosyl-(1->2glu)-O-α-L-rhamnopyranosyl-(1->4glu)-β-D-gluco-pyranose]
Degradation (%) mean ± S.D. [1, 3]: 0%
Degradation (%) mean ± S.D. ([1]; Time 0.5 years): 4 ± 4%
Degradation (%) mean ± S.D. ([1]; Time 1 year): 8 ± 5%
Degradation (%) mean ± S.D. ([1]; Time 2 years): 12 ± 7%
Degradation (%) mean ± S.D. ([1]; Time 3 years): 15 ± 8%
Degradation (%) mean ± S.D. ([1]; Time 4 years): 19 ± 10%
Degradation (%) mean ± S.D. ([1]; Time 5 years): 22 ± 10%
% degradation estimated [1]: less than 4%

C[C@@H]1CC[C@@]2(NC1)O[C@H]1C[C@H]3[C@@H]4CC=C5C[C@@H](O)CC[C@]5(C)[C@H]4CC[C@]3(C)[C@H]1[C@@H]2C [Solasodine, solasodine]
% survival ([2]; 3 μg/mL): 100%
% survival ([2]; 6 μg/mL): 100%
% survival ([2]; 9 μg/ml): 100%
% survival ([2]; 12 μg/ml): 100%
% survival ([2]; 15 μg/ml): 100%
% survival ([2]; 18 μg/ml): 100%
% survival ([2]; 24 μg/ml): 100%
effect against tumor cells (murine sarcoma 180; administered at levels at which BEC is effective): ineffective

C[C@@H]1CC[C@@]2(NC1)O[C@H]1C[C@H]3[C@@H]4CC=C5C[C@@H](O[C@@H]6O[C@H](CO)[C@H](O)[C@H](O[C@@H]7O[C@H](CO)[C@@H](O)[C@H](O)[C@H]7O)[C@H]6O[C@@H]6O[C@@H](C)[C@H](O)[C@@H](O)[C@H]6O)CC[C@]5(C)[C@H]4CC[C@]3(C)[C@H]1[C@@H]2C [Solasonine, (22R, 25R)-spiro-5-en-3β-yl-α-L-rhamnopyranosyl-(1->2gal)-O-β-D-glucopyranosyl-(1->3gal)-β-D-galactopyranose]
Degradation (%) mean ± S.D. [1, 3]: 0%
Degradation (%) mean ± S.D. ([1]; Time 0.5 years): 5 ± 5%
Degradation (%) mean ± S.D. ([1]; Time 1 year): 10 ± 5%
Degradation (%) mean ± S.D. ([1]; Time 2 years): 15 ± 8%
Degradation (%) mean ± S.D. ([1]; Time 3 years): 19 ± 9%
Degradation (%) mean ± S.D. ([1]; Time 4 years): 21 ± 10%
Degradation (%) mean ± S.D. ([1]; Time 5 years): 23 ± 11%
% degradation estimated [1]: < 5%

C[C@H](O)[C@H](O)[C@@H](O)[C@@H](O)C=O [rhamnose]
effect on S180 activity (murine sarcoma 180; similar concentrations of rhamnose in the absence of BEC): no effect
